The results in this text go back to patent US8815946B2, “Inhibition of proliferation and fibrotic response of activated corneal stromal cells” (University of Pittsburgh—of the Commonwealth System of …, priority 2008, dated 2014).

The test system of data set [1] is rabbit corneal stromal cells. The data set can be described thus: Cell proliferation analysis, rabbit corneal stromal cells. The format is cell-based. Particulars: 1% FBS, with TGF-β1 or b-FGF/HS. How it is done: FIG. 2. Effect of ethyl pyruvate on the growth of rabbit corneal stromal cells. Corneal stromal cells in P2 growing in DMEM/F12 with 10% FBS were subcultured into desired number of 35 mm tissue culture dishes. After 24 hrs of incubation, the media were replaced with DMEM/F12 medium containing 1% FBS without EP (labeled “Control), with EP (labeled “Control+EP”); with the same medium containing TGF-β1 without EP (labeled “TGF-β1”) or with EP (labeled “TGF-β1+EP”); or with the same medium containing b-FGF/HS without EP (labeled “FGF/HS”) or with EP (labeled “FGF/HS+EP”). The cells in several marked regions were counted every 24 hours as described in Methods. […]
To study the effect of EP on cell proliferation, normal human corneal fibroblasts growing in DMEM/F12 with 10% FBS were subcultured into the desired number of 35 mm tissue culture dishes at a density of 5×10^4 cells/per dish. […] Several regions were marked on the bottom of the dishes and cells in marked regions were counted at 24 hr intervals for five days. Phase contrast digital micrographs of the cells in the marked fields were captured and the cells in the images were counted using MetaMorph® imaging software. The rate of proliferation was evaluated by determining the number of cells at specific time points after treatment/number of cells at the start of the treatment. […]

The test system of another data set is α-SMA. The data set is described as follows: Western blot analyses of α-SMA, human corneal stromal cells. The format is cell-based. The procedure: FIG. 5. Western blot analyses of α-SMA. Human corneal stromal cells in P2 growing in DMEM/F12 with 10% FBS were subcultured into 60 mm tissue culture dishes. After 24 hrs of incubation, the media were replaced with DMEM/F12 medium containing 1% FBS and TGF-β1 with or without (control) different concentrations of EP as indicated and incubated for two and four days (media were changed every 24 hours). The cells were extracted in RIPA buffer and the extracts containing 5 μg of total proteins were loaded per lane for Western blot analysis.
Keratocytes or fibroblasts grown under different culture conditions were extracted in RIPA buffer (9.1 mM dibasic sodium phosphate, 1.7 mM monobasic sodium phosphate, 150 mM NaCl, pH, 7.4, 1% Nonidet P-40, 0.5% sodium deoxycholate, 0.1% SDS, 0.03 TIU/mL aprotinin, 1 mM sodium orthovanadate, and 100 μg/mL phenylmethylsulfonyl fluoride (PMSF)). Aliquots of cell extracts containing 50 or 100 μg protein were subjected to SDS-PAGE. […] Immunoreactive bands were detected using chemiluminescence Western chemiluminescence reagents. […]
On the technique in general: In western blotting, separated proteins are transferred to a membrane and probed.

The test system of another data set is cornea. The data set is described as follows: Mouse corneal wound healing and LPS inflammation model, confocal microscopy of corneal thickness and morphology. The format is in vivo, Mus musculus strain C57. The source says: (§1) A mouse model of corneal wound healing and inflammation induced by lipopolysacharide (LPS) was used to test the effect of EP. Khatari et al., Invest. Opthalmol. Vis. Sci. (2002) 43:2278-2284. Briefly, mice (Mus musculus strain C57, age approx. 2 months) were obtained from Charles River Laboratories in accordance with institutional protocols and divided into the following treatment groups (with 3 samples in each group):
(§2) Prior to wounding, all mice were anesthetized with an intraperitoneal injection of 50 mg/kg ketamine with 5 mg/kg xylazine. Topical anesthesia was further achieved with an additional 1 drop of 0.5% proparacaine per eye. Once the animal was sufficiently anesthetized, a corneal wound was constructed in each eye using a sterile 26-gauge needle that penetrated the epithelium and the superficial layers of the stroma. This linear scratch extended from the medial to lateral canthus (FIG. 12). 10 μg of the bacterial super-antigen LPS (Pseudomonas aeruginosa lipopolysaccharide, Sigma) was applied to the wound using a 10 μl pipette and allowed to penetrate the cornea for 5 minutes. Addition of bacterial endotoxin ensured a robust inflammatory response.
The wound was then washed with phosphate buffered saline (PBS/non-pyrogenic dH2O). Following the wash, the EP treatment groups received a 10 μl drop of 5% EP in PBS buffered to physiological pH with HEPES while the control group received PBS alone. Drops were applied to the corneal wound using a pipette and the mice were held by hand in such a way as to retain the drops on the eye for approximately 2 minutes. The delivery and concentration of EP was determined according to Devamanoharan et al. (1999); 200(1-2):103-09. […] Considering this quick absorption with the elimination half-life of EP, which is approximately 90 minutes, EP (500 mM) was applied every 90 minutes over the span of 12 hours during each day, followed by 12 hours of treatment overnight.
Animals were sacrificed and eyes harvested for analysis at 1 and 2 days post-wounding. After sacrificing, but prior to harvesting, eyes were imaged using the NIDEK CONFOSCAN 3® confocal microscope to analyze the morphology of the intact cornea. The images were later reconstructed into three-dimensional images in order to observe gross morphology, measure corneal thickness and light scattering which indicate edema and hypercellularity respectively.

Another data set concerns CD-45+ leukocytes. The data set is described as follows: Mouse corneal wound model, FACS with pan-leukocyte marker CD-45+. The format is in vivo, Mus musculus strain C57.
Text: as §1, §2
The wound was then washed with phosphate buffered saline (PBS/non-pyrogenic dH2O). […] The delivery and concentration of EP was determined according to Devamanoharan et al. (1999); 200(1-2):103-09. […]

In data set [2] the test system is human corneal stromal cells. The data set can be described thus: Toxicity to cultured human corneal stromal cells. The format is cell-based. Particulars: possibly due to low pH of the culture medium. The procedure: Higher than 20 mM concentrations were toxic to the cells, possibly due to the low pH of the culture medium resulting from high EP concentrations.
Where [3] appears, read: 1 day post-wounding, topical 5% EP every 90 minutes.

For `CCOC(=O)C(C)=O` [ethyl pyruvate], the “proliferation of rabbit stromal cells” value in data set [1] is reported as “inhibited proliferation”. For the same molecule, the “EP concentration with highest downregulation of α-SMA” value in the data set on α-SMA (TGF-β1) is recorded as 20 mM. The “TGF-β1 induced expression of α-SMA (Western blot)” value in the data set on α-SMA (two and four days, concentration dependent) was “down-regulated”. For the same molecule, the “light scattering within the stromal layer (qualitative)” value with cornea (1 day post-wounding) was “dark and quiet stroma”. Further, in the data set on cornea (setting [3]), the stromal thickness is given as 89-100 μm and the total corneal thickness is 194-207 μm. In addition, in the data set with cornea (2 days post-wounding), the “corneal morphology / light scattering (qualitative)” value is given as “normal in morphology”, the stromal thickness is 80-85 μm and the total corneal thickness is on record as 142-154 μm. For the same molecule, the “inflammatory cells (CD-45+) by FACS” value in the data set with CD-45+ leukocytes (day 1 post-wounding) came out at 28.50±12.02. Also, in the data set on CD-45+ leukocytes (day 2 post-wounding), the “inflammatory cells (CD-45+) by FACS” value is recorded as 163.00±57.42. The “concentrations toxic to the cells” value in data set [2] is listed as “Higher than 20 mM”.
